Measurements from patent publication US11207431B2, “HDAC6 inhibitors and imaging agents” (The General Hospital Corporation, priority 2017, dated 2021).
Where two headings read alike, the source gives them in different places.

Key:
[1] = PET/CT imaging in rats; type: in vivo, Sprague-Dawley rats
Experimental: 8 male Sprague-Dawley rats (Charles River Laboratories) were used for PET imaging. […] For intravenous administration, a catheter with an extension line was placed in a lateral tail vein. Each animal received a bolus injection of either vehicle (1:1:8 DMSO/Tween80/saline) or blocking agent in solution (1 mg/kg, 1 mg/mL in 1:1:8 DMSO/Tween80/saline) immediately prior to injection of the radiotracer.
After injection of a radiotracer bolus ([…] Example 2) a 90 min dynamic PET scan was acquired in pairs for all animals. PET scans were performed on a GammaMedica Triumph PET/CT/SPECT scanner, corrected for attenuation with a μ-map derived from the corresponding CT image, which was acquired immediately following the PET scan. The dynamic PET data was binned into 38 timeframes (8×15 s, 8×1 min, 10×2 min, 12×5) and reconstructed individually via an iterative MLEM (maximum likelihood expectation maximization) algorithm in 16 iterations.
PET images were to the CT image acquired from the same animal using AMIDE Data sets were cropped and all further image analysis was conducted using PMOD 3.3 (PMOD Technologies, Zurich, Switzerland). For maximum consistency, the data were coregistered to the Schiffer Px Rat rat brain template and data was derived from a whole brain VOI (volumes of interest) for time activity curves.

[2] = Brain penetrance comparison; settings: in vivo
[3] = test system: Human iPSC-derived neural progenitor cells; assay: Acetylation level assay (Western blot); type: cell-based; settings: 6 h at 37° C.; for amount of cellular acetyl-α-Tubulin: other compounds 10 μM; for Histone acetylation (H3K9 and H4K12): 10 μM
[4] = in vivo; settings: C57BL/6, mouse
[5] = test system: DiscoverX Safety47 panel: 24 GPCRs, 2 nuclear hormone receptors, 3 neurotransmitter transporters, 8 ion channels, 4 kinases, 6 other enzymes; assay: Safety (DiscoverX Safety47 Panel); settings: at 10 μM; 78 assays
[6] = target: T1, HDAC3 (Homo sapiens (Human), UniProt O15379); assay: IC50 assay, BPS Biosciences fluorescence assay; type: biochemical
T1 sequence (O15379 whole entry): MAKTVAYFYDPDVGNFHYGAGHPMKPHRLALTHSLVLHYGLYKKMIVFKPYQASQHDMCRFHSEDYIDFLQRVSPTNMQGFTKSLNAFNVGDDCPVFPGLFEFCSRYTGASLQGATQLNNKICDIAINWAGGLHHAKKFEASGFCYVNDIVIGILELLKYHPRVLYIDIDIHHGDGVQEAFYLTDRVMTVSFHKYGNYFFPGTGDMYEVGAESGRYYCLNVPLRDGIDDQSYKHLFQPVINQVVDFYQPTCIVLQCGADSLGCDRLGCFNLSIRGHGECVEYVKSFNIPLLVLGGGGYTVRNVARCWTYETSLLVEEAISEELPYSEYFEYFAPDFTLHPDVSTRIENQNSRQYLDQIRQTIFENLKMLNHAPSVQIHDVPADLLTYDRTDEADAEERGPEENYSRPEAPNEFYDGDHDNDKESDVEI
T1 sequence (Q9Y618 395-489 partner): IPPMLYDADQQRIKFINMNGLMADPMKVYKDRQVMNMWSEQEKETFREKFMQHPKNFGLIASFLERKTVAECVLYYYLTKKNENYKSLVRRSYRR

[7] = target: T2, HDAC2 (Homo sapiens (Human), UniProt Q92769); assay: IC50 assay by Nanosyn (Caliper microfluidics mobility shift detection); type: biochemical; settings: IC50 measured by Nanosyn
T2 sequence (Q92769 whole entry): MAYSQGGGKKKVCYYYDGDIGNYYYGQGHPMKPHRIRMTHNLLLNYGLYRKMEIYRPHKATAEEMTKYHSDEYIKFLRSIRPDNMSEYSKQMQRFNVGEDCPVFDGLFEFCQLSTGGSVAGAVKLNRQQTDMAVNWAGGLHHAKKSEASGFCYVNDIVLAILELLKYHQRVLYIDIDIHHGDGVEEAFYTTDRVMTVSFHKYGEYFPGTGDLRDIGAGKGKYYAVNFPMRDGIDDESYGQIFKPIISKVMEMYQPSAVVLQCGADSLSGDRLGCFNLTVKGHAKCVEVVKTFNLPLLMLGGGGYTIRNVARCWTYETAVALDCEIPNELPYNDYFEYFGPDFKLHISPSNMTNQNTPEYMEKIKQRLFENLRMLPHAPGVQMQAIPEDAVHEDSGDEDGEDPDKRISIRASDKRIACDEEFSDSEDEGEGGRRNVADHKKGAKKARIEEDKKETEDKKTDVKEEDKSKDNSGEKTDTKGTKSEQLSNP
Experimental: (§1) IC50 measurements were conducted by BPS Biosciences (Table 1) or by Nanosyn (Table 1A) with an established fluorescence assay. […] A=Martinostat (Caliper (microfluidics mobility shift detection) by Nanosyn (same run, duplicates));

[8] = target: T3, HDAC10 (Homo sapiens (Human), UniProt Q969S8); assay: as above; type: biochemical; settings: IC50 measured by Nanosyn
Experimental: as §1
Target sequence in this assay (Q969S8 whole entry): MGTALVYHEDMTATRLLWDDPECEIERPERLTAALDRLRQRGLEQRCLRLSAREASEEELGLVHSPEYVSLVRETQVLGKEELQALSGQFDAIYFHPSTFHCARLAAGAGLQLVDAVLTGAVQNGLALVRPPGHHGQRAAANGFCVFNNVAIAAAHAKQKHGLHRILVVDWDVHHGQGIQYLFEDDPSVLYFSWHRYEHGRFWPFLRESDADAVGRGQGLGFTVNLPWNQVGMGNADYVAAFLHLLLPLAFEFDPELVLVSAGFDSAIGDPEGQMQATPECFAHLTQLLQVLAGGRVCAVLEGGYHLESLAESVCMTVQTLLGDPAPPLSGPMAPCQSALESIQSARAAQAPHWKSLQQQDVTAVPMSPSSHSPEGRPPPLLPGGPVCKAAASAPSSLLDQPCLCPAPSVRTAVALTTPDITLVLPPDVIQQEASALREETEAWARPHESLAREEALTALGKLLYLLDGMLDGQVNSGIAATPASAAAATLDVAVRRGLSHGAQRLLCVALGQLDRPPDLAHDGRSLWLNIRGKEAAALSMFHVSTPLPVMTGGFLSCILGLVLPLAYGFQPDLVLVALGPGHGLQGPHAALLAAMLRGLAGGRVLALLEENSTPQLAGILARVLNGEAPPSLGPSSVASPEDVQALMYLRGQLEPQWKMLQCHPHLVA

[9] = target: T4, HDAC1 (Homo sapiens (Human), UniProt Q13547); assay: as above; type: biochemical; settings: IC50 measured by Nanosyn
T4 sequence (Q13547 whole entry): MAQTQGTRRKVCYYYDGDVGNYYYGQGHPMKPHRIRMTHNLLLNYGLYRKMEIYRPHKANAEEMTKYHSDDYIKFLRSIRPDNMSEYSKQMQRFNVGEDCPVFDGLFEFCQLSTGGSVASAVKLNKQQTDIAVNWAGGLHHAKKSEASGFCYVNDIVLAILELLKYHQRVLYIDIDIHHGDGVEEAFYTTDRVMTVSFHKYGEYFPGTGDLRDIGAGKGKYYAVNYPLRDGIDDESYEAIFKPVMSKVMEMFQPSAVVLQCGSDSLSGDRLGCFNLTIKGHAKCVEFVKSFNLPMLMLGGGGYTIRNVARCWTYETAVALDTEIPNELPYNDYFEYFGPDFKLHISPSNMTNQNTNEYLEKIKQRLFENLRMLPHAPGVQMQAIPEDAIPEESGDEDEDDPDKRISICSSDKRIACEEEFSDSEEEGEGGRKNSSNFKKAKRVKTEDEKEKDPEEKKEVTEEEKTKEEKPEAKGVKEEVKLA
Experimental: as §1

[10] = target: T1, HDAC3; assay: as above; type: biochemical; settings: IC50 measured by Nanosyn
Experimental: as §1

[11] = Hepatocyte stability; settings: human, hepatocytes
[12] = male, C57BL/6, mouse, in vivo, po, 5 mg/kg
[13] = target: T3, HDAC10; assay: IC50 assay, BPS Biosciences fluorescence assay; type: biochemical
Target sequence in this assay (Q969S8 whole entry): as the sequence (Q969S8 whole entry) above

[14] = Microsome stability; settings: human, microsomes
[15] = target: HDAC6 (Rattus norvegicus (Rat), UniProt A0A8I6GM68); assay: Autoradiography competition with radiolabeled Example 2 on rat brain slices; type: binding, Sprague-Dawley rat
Experimental: Sagittal slices of Sprague-Dawley rat brains were sectioned (10 μm) with a cryostat (Thermo Scientific HM550) and mounted onto ColorFrost Plus microscope slides (Fisher Scientific 12-550-18) and stored at −20° C. […] After 15 min, 50 μCi of the radiolabeled compound of Example 2 was added to each bath. After 15 minutes, all slides were washed by dipping 10× into buffer and subsequently submerged in 50 mL baths of buffer at 4° C. for 5 minutes. The slides were dried at 35° C. in a vacuum chamber. A phosphorus screen (Perkin Elmer 7001723) was exposed with the slides for 45 minutes and subsequently imaged with a Cyclone Plus Storage Phosphor (Perkin Elmer) detector. ImageJ was used to apply a Gaussian blur (3.0 radius) smoothing and a lookup table (Royal) with equivalent thresholds for brightness was applied. Raw intensity values from gray and white matter were quantified with the ImageJ measurement tool.

[16] = target: T4, HDAC1; assay: IC50 assay, BPS Biosciences fluorescence assay; type: biochemical
[17] = in vitro; settings: mouse, microsomes
[18] = in vitro; settings: rat, microsomes
[19] = target: T2, HDAC2; assay: IC50 assay, BPS Biosciences fluorescence assay; type: biochemical
[20] = target: T5, HDAC5 (Homo sapiens (Human), UniProt Q9UQL6); assay: IC50 assay by Nanosyn (Caliper microfluidics mobility shift detection); type: biochemical; settings: IC50 measured by Nanosyn
T5 sequence (Q9UQL6 whole entry): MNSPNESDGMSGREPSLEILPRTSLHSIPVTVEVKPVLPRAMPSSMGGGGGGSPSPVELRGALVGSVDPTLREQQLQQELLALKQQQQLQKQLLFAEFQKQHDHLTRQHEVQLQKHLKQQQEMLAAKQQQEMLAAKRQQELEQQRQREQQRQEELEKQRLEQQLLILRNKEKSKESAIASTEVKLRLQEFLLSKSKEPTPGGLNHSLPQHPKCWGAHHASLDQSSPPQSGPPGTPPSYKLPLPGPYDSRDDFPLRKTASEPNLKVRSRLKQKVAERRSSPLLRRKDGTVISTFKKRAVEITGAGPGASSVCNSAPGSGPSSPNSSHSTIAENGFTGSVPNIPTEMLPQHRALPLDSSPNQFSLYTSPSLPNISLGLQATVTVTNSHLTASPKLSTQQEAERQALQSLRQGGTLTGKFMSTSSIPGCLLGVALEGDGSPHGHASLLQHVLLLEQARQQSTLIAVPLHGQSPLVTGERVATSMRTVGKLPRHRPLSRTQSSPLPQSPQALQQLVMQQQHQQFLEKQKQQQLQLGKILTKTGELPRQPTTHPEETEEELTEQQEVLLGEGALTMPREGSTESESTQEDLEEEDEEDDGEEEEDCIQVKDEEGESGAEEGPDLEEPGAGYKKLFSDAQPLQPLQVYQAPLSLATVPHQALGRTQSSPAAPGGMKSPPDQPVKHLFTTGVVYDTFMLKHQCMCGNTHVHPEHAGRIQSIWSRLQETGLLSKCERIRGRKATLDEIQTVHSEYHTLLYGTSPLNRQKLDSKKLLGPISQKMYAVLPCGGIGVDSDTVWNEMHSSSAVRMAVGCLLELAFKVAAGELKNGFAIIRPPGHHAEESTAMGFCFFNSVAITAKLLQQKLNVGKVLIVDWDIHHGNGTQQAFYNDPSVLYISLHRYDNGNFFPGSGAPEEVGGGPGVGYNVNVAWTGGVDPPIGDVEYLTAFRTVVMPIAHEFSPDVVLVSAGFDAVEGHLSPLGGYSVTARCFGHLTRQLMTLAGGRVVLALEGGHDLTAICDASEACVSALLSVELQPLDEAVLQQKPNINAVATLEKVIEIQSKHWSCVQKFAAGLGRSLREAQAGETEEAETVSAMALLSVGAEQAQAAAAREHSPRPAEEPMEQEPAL

[21] = target: T6, HDAC11 (Homo sapiens (Human), UniProt Q96DB2); assay: IC50 assay, BPS Biosciences fluorescence assay; type: biochemical
Target sequence in this assay (Q96DB2 whole entry): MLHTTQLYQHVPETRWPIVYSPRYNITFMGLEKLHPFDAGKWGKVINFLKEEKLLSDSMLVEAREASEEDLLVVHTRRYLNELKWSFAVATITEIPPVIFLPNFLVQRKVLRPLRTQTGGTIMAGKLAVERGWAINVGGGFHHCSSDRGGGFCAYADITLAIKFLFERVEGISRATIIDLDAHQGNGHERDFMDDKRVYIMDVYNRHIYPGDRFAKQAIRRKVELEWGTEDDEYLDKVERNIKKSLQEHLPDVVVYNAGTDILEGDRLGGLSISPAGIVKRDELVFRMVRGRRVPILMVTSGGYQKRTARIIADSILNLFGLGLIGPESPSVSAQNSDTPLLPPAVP

[22] = target: T5, HDAC5; assay: IC50 assay, BPS Biosciences fluorescence assay; type: biochemical
[23] = target: T7, HDAC7 (Homo sapiens (Human), UniProt Q8WUI4); assay: IC50 assay, BPS Biosciences fluorescence assay; type: biochemical
[24] = target: T8, HDAC8 (Homo sapiens (Human), UniProt Q9BY41); assay: IC50 assay, BPS Biosciences fluorescence assay; type: biochemical
[25] = target: T7, HDAC7; assay: IC50 assay by Nanosyn (Caliper microfluidics mobility shift detection); type: biochemical; settings: IC50 measured by Nanosyn
[26] = target: T9, HDAC4 (Homo sapiens (Human), UniProt P56524); assay: IC50 assay, BPS Biosciences fluorescence assay; type: biochemical
T9 sequence (P56524 whole entry): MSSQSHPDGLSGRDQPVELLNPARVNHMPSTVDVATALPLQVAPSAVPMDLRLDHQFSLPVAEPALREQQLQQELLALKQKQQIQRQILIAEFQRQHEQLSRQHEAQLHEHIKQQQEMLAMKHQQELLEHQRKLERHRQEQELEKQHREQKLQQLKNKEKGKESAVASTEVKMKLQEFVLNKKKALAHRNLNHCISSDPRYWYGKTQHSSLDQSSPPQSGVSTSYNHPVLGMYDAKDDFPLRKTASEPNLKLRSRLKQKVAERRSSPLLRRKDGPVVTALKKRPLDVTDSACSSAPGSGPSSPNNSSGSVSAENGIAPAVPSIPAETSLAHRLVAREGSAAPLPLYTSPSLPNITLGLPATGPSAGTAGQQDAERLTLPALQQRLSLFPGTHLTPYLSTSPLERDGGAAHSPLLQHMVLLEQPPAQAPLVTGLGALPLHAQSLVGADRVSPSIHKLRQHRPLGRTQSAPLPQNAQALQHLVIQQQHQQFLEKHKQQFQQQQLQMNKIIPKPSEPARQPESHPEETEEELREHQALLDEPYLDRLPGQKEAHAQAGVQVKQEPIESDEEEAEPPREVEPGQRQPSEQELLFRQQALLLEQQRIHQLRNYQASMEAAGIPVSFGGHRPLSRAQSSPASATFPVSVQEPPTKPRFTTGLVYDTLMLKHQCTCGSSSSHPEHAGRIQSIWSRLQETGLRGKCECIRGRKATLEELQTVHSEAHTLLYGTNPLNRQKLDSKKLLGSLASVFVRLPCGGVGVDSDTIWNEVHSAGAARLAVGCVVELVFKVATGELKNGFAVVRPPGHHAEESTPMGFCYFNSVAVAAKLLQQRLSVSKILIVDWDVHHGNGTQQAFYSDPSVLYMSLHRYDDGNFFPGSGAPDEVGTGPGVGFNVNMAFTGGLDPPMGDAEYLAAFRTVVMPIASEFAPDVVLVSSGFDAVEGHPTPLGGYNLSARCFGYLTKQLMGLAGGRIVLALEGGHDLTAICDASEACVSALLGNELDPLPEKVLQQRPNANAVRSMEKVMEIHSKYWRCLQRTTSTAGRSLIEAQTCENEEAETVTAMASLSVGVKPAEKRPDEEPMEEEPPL

[27] = target: T10, HDAC6 (Homo sapiens (Human), UniProt Q9UBN7); assay: IC50 assay by Nanosyn (Caliper microfluidics mobility shift detection); type: biochemical; settings: IC50 measured by Nanosyn
[28] = target: T10, HDAC6; assay: IC50 assay, BPS Biosciences fluorescence assay; type: biochemical
[29] = target: T11, HDAC9 (Homo sapiens (Human), UniProt Q9UKV0); assay: IC50 assay, BPS Biosciences fluorescence assay; type: biochemical
[30] = target: T9, HDAC4; assay: IC50 assay by Nanosyn (Caliper microfluidics mobility shift detection); type: biochemical; settings: IC50 measured by Nanosyn
[31] = target: T8, HDAC8; assay: as above; type: biochemical; settings: IC50 measured by Nanosyn
[32] = target: T11, HDAC9; assay: as above; type: biochemical; settings: IC50 measured by Nanosyn
[33] = target: T6, HDAC11; assay: as above; type: biochemical; settings: IC50 measured by Nanosyn
Target sequence in this assay (Q96DB2 whole entry): as the sequence (Q96DB2 whole entry) above

[34] = target: T10, HDAC6; settings: read-out: HDAC6 IC50; comparison compound C, source not stated
[35] = target: T2, HDAC2; assay: IC50 values of comparison compounds B-F (Table 1B); type: biochemical; settings: comparison compound C, source not stated
Source text: (§2) [drawing 62] (see e.g., WO 2015/058106; Fluorescent-intensity-based enzymatic assay, multiple runs; duplicates);

[36] = target: T9, HDAC4; assay: IC50 values of comparison compounds B-F (Table 1B); type: biochemical; settings: comparison compound C, source not stated
Source text: as §2

[37] = target: T5, HDAC5; assay: IC50 values of comparison compounds B-F (Table 1B); type: biochemical; settings: comparison compound C, source not stated
Source text: as §2

[38] = target: T6, HDAC11; assay: IC50 values of comparison compounds B-F (Table 1B); type: biochemical; settings: comparison compound C, source not stated
Source text: as §2
Target sequence in this assay (Q96DB2 whole entry, species assumed): as the sequence (Q96DB2 whole entry) above

[39] = target: T3, HDAC10; assay: IC50 values of comparison compounds B-F (Table 1B); type: biochemical; settings: comparison compound C, source not stated
Source text: as §2
Target sequence in this assay (Q969S8 whole entry, species assumed): as the sequence (Q969S8 whole entry) above

[40] = target: T4, HDAC1; assay: IC50 values of comparison compounds B-F (Table 1B); type: biochemical; settings: comparison compound C, source not stated
Source text: as §2

[41] = target: T8, HDAC8; assay: IC50 values of comparison compounds B-F (Table 1B); type: biochemical; settings: comparison compound C, source not stated
Source text: as §2

[42] = target: T1, HDAC3; assay: IC50 values of comparison compounds B-F (Table 1B); type: biochemical; settings: comparison compound C, source not stated
Source text: as §2

[43] = target: T11, HDAC9; assay: IC50 values of comparison compounds B-F (Table 1B); type: biochemical; settings: comparison compound C, source not stated
Source text: as §2

[44] = BPS Biosciences fluorescence assay

CN(Cc1ccc(C(=O)NO)cc1[18F])CC12CC3CC(CC(C3)C1)C2 [Example 2, 4-((((Adamantan-1-yl)methyl)(methyl)amino)methyl)-3-[^18F]fluoro-N-hydroxybenzamide]
brain uptake and retention ([1]; radiotracer, PET): excellent
off-rate in preclinical PET ([1]; rat, in vivo): slow

O=C(CCCCCCNC(=O)c1cnc(N(c2ccccc2)c2ccccc2)nc1)NO [ACY-1215, ricolinostat]
Brain-penetrant? [2]: −
acetylation of H4K12 ([3]; ACY1215 5 μM): significantly increased
amount of cellular acetyl-α-Tubulin ([3]; ACY1215 5 μM): increased

CN(Cc1ccc(C(=O)NO)cc1F)CC12CC3CC(CC(C3)C1)C2 [Example 1, 4-(((((3s)-Adamantan-1-yl)methyl)(methyl)amino)methyl)-3-fluoro-N-hydroxybenzamide]
bioavailability ([4]; po): 10%
half-life ([4]; male, ip, 5 mg/kg): 4.8 min
half-life ([4]; male, po, 5 mg/kg): 15 min
Cmax ([4]; male, po, 5 mg/kg, Cmax): 460 nM
Safety (DiscoverX Safety47 Panel) [5]: No effect at 10 μM
IC50 ([6]; IC50 measured by BPS): > 1 µM
Brain-penetrant? [2]: +++
Histone acetylation (H3K9 and H4K12) [3]: remained unaltered
amount of cellular acetyl-α-Tubulin ([3]; ACY1215 5 μM): increased
IC50 [7]: > 1 µM
IC50 [8]: > 1 µM
IC50 [9]: > 1 µM
IC50 [10]: > 1 µM
half-life [11]: 20 min
T1/2 [12]: 15 min
IC50 ([13]; BPS Biosciences, unit mM printed in cell): > 1000 µM
IC50 ([13]; IC50 measured by BPS): > 1 µM
inhibition at 1000 µM ([13]; read-out: HDAC10 Percentage Inhibition): 21%
half-life [14]: 19 min
binding of radiolabeled Example 2 to rat brain slices ([15]; blocking compound at 1 μM): significantly reduced
IC50 ([16]; IC50 measured by BPS): > 1 µM
half-life [17]: < 10 min
effect on time activity curve of radiolabeled Example 2 ([1]; 1 mg/kg, 30-minutes post radiotracer administration): clear deflection of the time activity curve
effect on brain uptake of radiolabeled Example 2 ([1]; non-radioactive compound at 1 mg/kg): blocking of brain uptake
half-life [18]: < 10 min
IC50 ([19]; IC50 measured by BPS): > 1 µM

CN1CCc2c(c3ccccc3n2Cc2ccc(C(=O)NO)cc2)C1 [Tubastatin A]
Brain-penetrant? [2]: +/−
Histone acetylation (H3K9 and H4K12) [3]: remained unaltered
amount of cellular acetyl-α-Tubulin ([3]; ACY1215 5 μM): increased
amount of bound radioactivity (radiolabeled Example 2) on rat brain slices ([15]; Tubastatin A at 100 μM): reduce the amount of bound radioactivity to the same background as 10 μM Example 1

CN(Cc1ccc(/C=C/C(=O)NO)cc1)CC12CC3CC(CC(C3)C1)C2 [Martinostat, martinostat]
IC50 [20]: 0.075 µM
IC50 [6, 44]: 0.0071 µM
IC50 [21, 44]: > 1 µM
inhibition at 1 µM ([21]; at 1 μM, BPS Biosciences, read-out: HDAC11 Percentage Inhibition): 17%
IC50 [22]: 0.98 µM
IC50 [23]: > 1 µM
IC50 [24]: > 1 µM
IC50 [25]: > 1 µM
IC50 [7]: 0.004 µM
IC50 [8]: 0.002 µM
IC50 [9]: 0.0012 µM
IC50 [10]: 0.0003 µM
IC50 [26, 44]: > 1 µM
inhibition at 1 µM ([26]; at 1 μM, BPS Biosciences, read-out: HDAC4 Percentage Inhibition): 39%
IC50 [27]: 0.0018 µM
IC50 [28]: 0.048 µM
IC50 [13, 44]: 0.0089 µM
IC50 [29, 44]: > 1 µM
inhibition at 1 µM ([29]; at 1 μM, BPS Biosciences, read-out: HDAC9 Percentage Inhibition): 12%
IC50 [30]: 0.24 µM
IC50 [16, 44]: 0.0062 µM
IC50 [31]: 0.75 µM
IC50 [19, 44]: 0.022 µM
IC50 [32]: > 1 µM
IC50 [33]: > 1 µM

CN(c1ncc(C(=O)NO)cn1)C12CC3CC(CC(C3)C1)C2 [C]
IC50 [34]: 0.033 µM
IC50 [35]: 0.065 µM
IC50 [36]: 0.034 µM
IC50 [37]: 0.121 µM
IC50 [38]: 3.6 µM
IC50 [39]: 0.025 µM
IC50 [40]: 0.02 µM
IC50 [41]: 0.364 µM
IC50 [42]: 0.024 µM
IC50 [43]: 0.052 µM
